Read-outs that look alike come from different tables or passages of the source.
Test system: hypertriglyceridemic patients with cardiovascular disease or at high risk for cardiovascular disease
Conditions: human, in vivo
Description: The following clinical events that were positively adjudicated by the Clinical Endpoint Committee were analyzed as tertiary endpoints for the ITT intent-to-treat (ITT) population: • Composition of total mortality, or congestive heart failure (CHF); • Composite of CV death, or new CHF; • Sudden cardiac death; • Peripheral artery disease (PAD); and • Atrial fibrillation, or atrial flutter.
Definition of Cardiac Arrhythmia Requiring Hospitalization: An arrhythmia that either results in hospitalization (≥24 hours) during or within 24 hours of the termination of the last episode for treatment or requires continued hospitalization for treatment, including any one of the following: • Atrial arrhythmia—atrial fibrillation, atrial flutter, supraventricular tachycardia that requires cardio-version, drug therapy, or is sustained for greater than 1 minute; • Ventricular arrhythmia—Ventricular tachycardia or ventricular fibrillation requiring cardio-version and/or intravenous antiarrhythmics; and/or • Bradyarrhythmia—High-level AV block (defined as third-degree AV block or second-degree AV block), junctional or ventricular escape rhythm, or severe sinus bradycardia (typically with heart rate <30 bpm). The bradycardia must require temporary or permanent pacing.
The objective of the following study was to determine how icosapent ethyl affected the incidence of atrial fibrillation and/or flutter in patients from the REDUCE-IT trial, as described in Example 1.
Although not pre-specified as TEAEs of special interest, atrial fibrillation and atrial flutter were also explored post hoc as potential safety signals as discussed above in Example 7. A summary of TEAEs and SAEs of atrial fibrillation/flutter is presented in Table 83, along with positively adjudicated atrial fibrillation/flutter requiring hospitalization of ≥24 hours as a comprehensive compilation of all documented post-randomization occurrences of these atrial arrhythmias. Occurrences of atrial fibrillation or flutter not meeting endpoint criteria (i.e., not positively adjudicated as endpoints) were counted as TEAEs or SAEs, per seriousness criteria.

CC/C=C\C/C=C\C/C=C\C/C=C\C/C=C\CCCC(=O)OCC [AMR101, eicosapentaenoic acid ethyl ester]
Adjudicated as Bradycardia/Heart Block (without Hosp. ≥24 hrs), patients (%): (0.0) %
Adjudicated as VTA/F (without Hosp. ≥24 hrs), patients (%): (0.0) %
Atrial fibrillation TEAE, Event Rate: 5.3%
Atrial fibrillation TEAE, Number of Subjects: 215
Atrial fibrillation and/or flutter adverse events, SAEs: 0.5%
Atrial fibrillation and/or flutter adverse events, TEAEs: 5.8%
Atrial fibrillation or atrial flutter requiring hospitalization of ≥24 hours, patients with event: 3.1%
Atrial fibrillation/flutter AEs, %: (7.7) %
Atrial fibrillation/flutter AEs, (%): 5.8%
Atrial fibrillation/flutter SAEs (not positively adjudicated as endpoints), patients: 0.6%
Atrial fibrillation/flutter TEAEs (not positively adjudicated as endpoints), patients: 7.7%
Positively Adjudicated Atrial Fibrillation/Flutter (requiring hospitalization): 127 (3.1%) n (%)
Positively adjudicated Afib/Aflutter requiring ≥24 hours hospitalization, (%): 3.1%
Positively adjudicated atrial fibrillation/flutter requiring ≥24 hours hospitalization, %: (3.1) %
Serious Afib/Aflutter AEs, (%): 0.5%
Serious atrial fibrillation/flutter AEs, %: (0.6) %
Subjects with at least one Atrial Fibrillation/Atrial Flutter event: 321
Treatment-emergent atrial fibrillation (Serious), Event Rate: 0.5%
Treatment-emergent atrial fibrillation (Serious), Number of Subjects: 21
Treatment-emergent atrial fibrillation, Event Rate: 5.3%
Treatment-emergent atrial fibrillation, Number of Subjects: 215
Treatment-emergent atrial flutter (Serious), Event Rate: 0.0%
Treatment-emergent atrial flutter (Serious), Number of Subjects: 1
Treatment-emergent atrial flutter, Event Rate: 0.8%
Treatment-emergent atrial flutter, Number of Subjects: 32
First onset of atrial fibrillation and/or flutter, Icosapent Ethyl-Placebo Risk Diff., % (95% CI) (0.5 years): −0.00%
First onset of atrial fibrillation and/or flutter, Icosapent Ethyl-Placebo Risk Diff., % (95% CI) (1 year): 0.20%
First onset of atrial fibrillation and/or flutter, Icosapent Ethyl-Placebo Risk Diff., % (95% CI) (1.5 years): 0.51%
First onset of atrial fibrillation and/or flutter, Icosapent Ethyl-Placebo Risk Diff., % (95% CI) (2 years): 0.59%
First onset of atrial fibrillation and/or flutter, Icosapent Ethyl-Placebo Risk Diff., % (95% CI) (2.5 years): 0.78%
First onset of atrial fibrillation and/or flutter, Icosapent Ethyl-Placebo Risk Diff., % (95% CI) (3 years): 0.83%
First onset of atrial fibrillation and/or flutter, Icosapent Ethyl-Placebo Risk Diff., % (95% CI) (3.5 years): 1.17%
First onset of atrial fibrillation and/or flutter, Icosapent Ethyl-Placebo Risk Diff., % (95% CI) (4 years): 1.23%
First onset of atrial fibrillation and/or flutter, Icosapent Ethyl-Placebo Risk Diff., % (95% CI) (4.5 years): 1.00%
First onset of atrial fibrillation and/or flutter, Icosapent Ethyl-Placebo Risk Diff., % (95% CI) (5 years): 1.08%
First onset of atrial fibrillation and/or flutter, Icosapent Ethyl-Placebo Risk Diff., % (95% CI) (5.5 years): 1.00%
Positively adjudicated atrial fibrillation and/or flutter, incidence (6 months): 0.3%
First onset of atrial fibrillation and/or flutter, Icosapent Ethyl-Placebo Risk Diff., % (95% CI) (6 years): 2.07%

From patent publication US12427134B2, “Methods of reducing the risk of cardiovascular events in a subject with atrial fibrillation and/or atrial flutter” (priority 2019, dated 2025)
